Literature values, collected in patent publication US20150320795A1, “COMPOSITIONS AND METHODS COMPRISING POLYETHYLENE GLYCOL AND MAGNESIUM FOR TREATMENT OF NEURONAL INJURY” (priority 2012, published 2015).
Read-outs that look alike come from different tables or passages of the source.

Assays:
brain injury = conditions: animals; U.S. application Ser. No. 11/418,153
[1] = previously published

serum magnesium half-lives ([1]; healthy volunteers, after one infusion): 1.25 to 4.75 h | serum magnesium half-lives ([1]; patients, pre-eclampsia): 5.2 h
SMILES: [Mg+2] [magnesium]
effect on the loss of cognitive functions following brain injury (brain injury): no effect | serum magnesium half-lives ([1]; brain injured patients after a 24-hour infusion period): ~6 h
